Data set [1] can be described thus: solubility in organic solvents. The format is physicochemical. Conditions: organic solvent or mixture.
Data set [2] is described as follows: solubility in water. The format is physicochemical.
Data set [3] concerns mast cells degranulation. Put plainly: in vivo mast cell degranulation induced by substance P in the auricular pinna, systemic subcutaneous pretreatment. Details: species or system Sprague Dawley rats. As to the method: • 2 weeks old Sprague […] rats, provided by Charles River from Calco, were locally treated by intradermal injection on the auricular pinna with the compounds in question at the dose of 0.5mg/kg, in a buffered aqueous solution at physiological pH. After 10 minutes a local administration, still by intradermal route, followed, of the substance P (10^-4 M), able to induce a mast cells degranulation response. After 30' from the subtance P administration, the animals were sacrificed and the relative tissue samples (pinna) were taken, for an analysis of the morphological aspect of the mast cells residing in the connectival tissues after fixation and coloration with toluidine blue. The inhibition degree in mast cells degranulation in the tissues of the animals treated with the compounds under question, and compared with those of animals treated only with the physiological degranulation factor (substance P) was considered as a parameter for the biological activity. […] The pharmacologic activity of the compounds under question was also verified under conditions of a systemic subcutaneous administration. In this case the animals were firstly treated with 20 mg/kg of the substances under question and after 30 minutes were exposed to the degranulation stimulus with the substance P (10^-6 M) in the auricular pinna. Then we proceeded as previously described. In Tab.2 the obtained results are reported on an average of 500-800 cells. Tab.2

Data set [4] has as its system Peritoneal mast cells of rat. Kind of data set: in vitro degranulation of cultured peritoneal mast cells stimulated with substance P. The format is cell-based. The method, then:
Peritoneal mast cells of rat were taken according to the standard methodology described by Lagunoff (1975, Tech. Biochem. Biophys. Morphol. , 2, pp. 289-305).
The cells were then cultured in MEM which 10% fetal calf serum was added to and then incubated in a Haereus^R incubator for 30 minutes.
The derivatives under question at the concentration of 10⁻⁵ M were added to the incubation medium .
At the end of the incubation the physiological degranulation stimulus represented by the substance P (10⁻⁴) was added.
The cells were then centrifugated in order to remove the supernatant formed by the incubation medium and placed onto the slide after coloration with toluidine blue, for the analysis of the morphological aspect at the optical microcope.
Also under these conditions the parameter to be considered was the percentage of degranulated cells after stimulation with the Substance P.

Data set [5] deals with mast cells degranulation. Kind of data set: in vivo mast cell degranulation induced by substance P in the auricular pinna, intradermal (local) pretreatment. On the set-up: species or system Sprague Pawley rats. The conditions noted are these: compound 0.5 mg/kg intradermal on the auricular pinna, substance P (10⁻⁴ M) intradermal after 10 minutes, sacrifice 30' later. As to the method:
• 2 weeks old Sprague Pawley rats, provided by Charles River from Calco, were locally treated by intradermal injection on the auricular pinna with the compounds in question at the dose of 0.5mg/kg, in a buffered aqueous solution at physiological pH. After 10 minutes a local administration, still by intradermal route, followed, of the substance P (10⁻⁴ M), able to induce a mast cells degranulation response. After 30' from the subtance P administration, the animals were sacrificed and the relative tissue samples (pinna) were taken, for an analysis of the morphological aspect of the mast cells residing in the connectival tissues after fixation and coloration with toluidine blue. The inhibition degree in mast cells degranulation in the tissues of the animals treated with the compounds under question, and compared with those of animals treated only with the physiological degranulation factor (substance P) was considered as a parameter for the biological activity.

The mark [6] stands for this setting: compound 20 mg/kg subcutaneous, substance P (10⁻⁶ M) in the auricular pinna after 30 minutes, average of 500-800 cells.
The mark [7] stands for this setting: compound 10⁻⁵ M in the incubation medium, 30 minutes, then substance P (10⁻⁴).

As a reminder, the solubility is the concentration that dissolves in the medium under given conditions. As for `O=C(CC(O)C(=O)NCCO)NCCO` (racemic) [(8), N,N'-bis (2-hydroxyethyl)-(+/-)2-hydroxysuccinimide], the solubility in data set [1] (in DMSO) and in data set [2] was more than 10000 µg/mL in each case. For the same compound, the “% of cells undergoing degranulation” value in data set [3] (setting [6]) is listed as 31%.

With `O=C(/C=C/C(=O)NCCO)NCCO` [(1), N-fumaroylethanolamide], the solubility in data set [1] (in DMSO), in data set [1] (in hot ethanol) and in data set [2] was less than 20000 µg/mL throughout. Also, the “% of cells undergoing degranulation” value in data set [4] (setting [7]) is on record as 35%; in data set [5], 40%; in data set [3] (setting [6]) it was 28%.

Regarding `O=C(/C=C/C(=O)N(CCO)CCO)N(CCO)CCO` [(2), N,N,N',N'-tetra (2-hydroxyethyl)-fumaroyl-diamide], the solubility in data set [1] (in DMSO), in data set [1] (in hot ethanol) and in data set [2] was more than 10000 µg/mL each time. Moreover, the “% of cells undergoing degranulation” value in data set [4] (setting [7]) is listed as 30%; in data set [3] (setting [6]) it was 32%.

Regarding `O=C(CCCCCCCC(=O)NCCO)NCCO` [(3), N,N'-bis-(2-hydroxyethyl)-nonandiamide], the solubility in data set [1] (solvent not stated) was more than 10000 µg/mL. Also, the “% of cells undergoing degranulation” value in data set [4] (setting [7]), in data set [5] and in data set [3] (setting [6]) was 30% in each case.

As for `O=C(CCC(=O)NCCO)NCCO` [(4), N,N'-bis-(2-hydroxyethyl)-succinamide], the solubility in data set [1] (in DMSO) was more than 10000 µg/mL. The results for the “% of cells undergoing degranulation” value in data set [4] (setting [7]) and in data set [3] (setting [6]) were 35% and 32%, respectively.

In the case of `O=C(NCCO)C(=O)NCCO` [(5), N,N'-bis(2-hydroxyethyl)-oxalyldiamide], the solubility in data set [1] (in DMSO) and in data set [2] was more than 10000 µg/mL throughout. Moreover, the “% of cells undergoing degranulation” value in data set [3] (setting [6]) was determined as 45.5%.

For the compound `O=C(/C=C/CCCCCCCCC(=O)NCCO)NCCO` [(6), N,N'-bis (2-hydroxyethyl)trans-2-dodecendiamide], the solubility in data set [1] (in DMSO), in data set [1] (in ethanol) and in data set [2] (at 95 °C) was more than 10000 µg/mL throughout. Besides, the “% of cells undergoing degranulation” value in data set [3] (setting [6]) was found to be 33.6%.

Regarding `O=C(CC(=O)NCCO)NCCO` [(7), N,N' -(2-hydroxyethyl)-malondiamide], the figures for the solubility in data set [1] (in DMSO), in data set [1] (in ethanol) and in data set [2] were more than 5000 µg/mL, more than 10000 µg/mL and more than 10000 µg/mL, respectively. Further, the “% of cells undergoing degranulation” value in data set [3] (setting [6]) came to 35%.

`O=C(NCCO)[C@H](O)[C@@H](O)C(=O)NCCO` [(9), (R,R)-(+) 2,3-dihydroxy-N,N'-bis (2-hydroxyethyl)-succinamide]: the solubility in data set [1] (in DMSO) and in data set [2] was more than 10000 µg/mL in each case. For the same compound, the “% of cells undergoing degranulation” value in data set [3] (setting [6]) was 32%.

For the compound `CC(O)CNC(=O)/C=C/C(=O)NCC(C)O` (stereo not shown) [(10), N,N'-bis (2-hydroxypropyl)-fumaroyldiamide], the solubility in data set [1] (in DMSO) and in data set [2] was more than 10000 µg/mL in each case. In data set [3] (setting [6]), the “% of cells undergoing degranulation” value is given as 38%.

`O=C(NCCO)c1cc(=O)c2c(OCC(O)COc3cccc4oc(C(=O)NCCO)cc(=O)c34)cccc2o1` [(11), N,N'-bis (2-hydroxyethyl)-cromoglycholyldiamide]: the solubility in data set [1] (in DMSO) and in data set [2] was more than 10000 µg/mL each time. Further, the “% of cells undergoing degranulation” value in data set [3] (setting [6]) stood at 28.6%.

Take `NC(CC(=O)NCCO)C(=O)NCCO` (stereo not shown) [(12), N,N'-bis (2-hydroxyethyl)-aspartyldiamide]: the solubility in data set [1] (in DMSO) and in data set [2] was more than 10000 µg/mL throughout. Moreover, the “% of cells undergoing degranulation” value in data set [3] (setting [6]) is recorded as 30%.

For `O=C(NCCO)c1ccccc1C(=O)NCCO` [(13), N,N' -bis (2-hydroxyethyl)-phthaloyldiamide], the solubility in data set [1] (in ethanol) and in data set [2] was more than 10000 µg/mL throughout. For the same compound, in data set [3] (setting [6]), the “% of cells undergoing degranulation” value was 35.5%.

Turning to `O=C(/C=C/C=C/C(=O)NCCO)NCCO` [(14), N,N'-bis (2-hydroxyethyl)-trans,trans-muconoyldiamide], the solubility in data set [1] (in DMSO) and in data set [2] was more than 10000 µg/mL in each case. The “% of cells undergoing degranulation” value in data set [3] (setting [6]) is on record as 40.2%.

In the case of `O=C(CCCC(=O)NCCO)NCCO` [(15), N,N'-bis-(2-hydroxyethyl)-glutaroyldiamide], the solubility in data set [1] (in DMSO) and in data set [2] was more than 10000 µg/mL in each case. Also, in data set [3] (setting [6]), the “% of cells undergoing degranulation” value amounted to 30%.

For the compound `CSCC[C@H](NC(=O)[C@H](CC(C)C)NC(=O)CNC(=O)[C@H](Cc1ccccc1)NC(=O)[C@H](Cc1ccccc1)NC(=O)[C@H](CCC(N)=O)NC(=O)[C@H](CCC(N)=O)NC(=O)[C@@H]1CCCN1C(=O)[C@H](CCCCN)NC(=O)[C@@H]1CCCN1C(=O)[C@@H](N)CCCNC(=N)N)C(N)=O` [substance P, reference compound], the “% of cells undergoing degranulation” value is on record as 96% in data set [4] (substance P (10⁻⁴) alone) and 92% in data set [3] (substance P (10⁻⁶ M) in the auricular pinna alone, no pretreatment).

These data come from patent publication EP0550008A2, “Use of N-acyl derivatives of aminoalcohols with polycarboxylic acids for the manufacture of a medicament for the treatment of pathologies relating to mast cells” (LIFEGROUP S.p.A., priority 1991, dated 1993).
